Assay results taken from BindingDB's records for doi:10.1021/jm970265x (Glaxo Wellcome Research and Development, 1997).
Where “and” joins values, the source holds several entries; their conditions need not be identical. Identical values can stand only once.

Molecular target: T1, Gastrin/cholecystokinin type B receptor (Homo sapiens, UniProt P32239)
T1 sequence (P32239 whole entry): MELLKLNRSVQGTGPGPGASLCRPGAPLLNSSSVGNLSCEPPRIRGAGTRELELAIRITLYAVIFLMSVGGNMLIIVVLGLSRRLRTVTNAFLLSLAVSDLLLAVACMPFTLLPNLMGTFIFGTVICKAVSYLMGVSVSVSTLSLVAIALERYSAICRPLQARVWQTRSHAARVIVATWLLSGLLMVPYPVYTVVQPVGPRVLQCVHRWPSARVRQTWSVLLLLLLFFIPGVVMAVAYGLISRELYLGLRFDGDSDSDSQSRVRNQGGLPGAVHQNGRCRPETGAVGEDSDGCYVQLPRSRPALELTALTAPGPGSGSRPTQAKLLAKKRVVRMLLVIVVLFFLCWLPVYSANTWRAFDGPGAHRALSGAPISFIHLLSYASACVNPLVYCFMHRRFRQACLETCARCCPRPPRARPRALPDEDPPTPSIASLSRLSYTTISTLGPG

Structure (SMILES)	Ki
COc1cccc(N(C(=O)CN2C(=O)C(Cc3n[nH]c4ccccc34)C(=O)N(c3ccccc3)c3ccccc32)C(C)C)c1 (stereo not drawn) [CCK-A Agonist 40]	479 nM and 191 nM
CC(C)N(C(=O)CN1C(=O)C(Cc2n[nH]c3ccccc23)C(=O)N(c2ccccc2)c2ccccc21)c1ccc(F)cc1 (stereo not drawn) [CCK-A Agonist 38]	138 nM and 479 nM
COc1ccc(N(C(=O)CN2C(=O)C(Cc3n[nH]c4c(F)cccc34)C(=O)N(c3ccccc3)c3ccccc32)C(C)C)cc1 (stereo not drawn) [CCK-A Agonist 34]	1050 nM
CC(C)N(C(=O)CN1C(=O)C(Cc2n[nH]c3ccccc23)C(=O)N(c2ccccc2)c2ccccc21)c1ccc2c(c1)OCO2 (stereo not drawn) [CCK-A Agonist 42]	724 nM
CC(C)(C)N(C(=O)CN1C(=O)C(Cc2n[nH]c3ccccc23)C(=O)N(c2ccccc2)c2ccccc21)c1ccccc1 (stereo not drawn) [CCK-A Agonist 45]	891 nM
CC(C)N(C(=O)CN1C(=O)C(Cc2n[nH]c3ccccc23)C(=O)N(c2ccccc2)c2ccccc21)c1ccc(C(F)(F)F)cc1 (stereo not drawn) [CCK-A Agonist 39]	1660 nM
CC(C)N(C(=O)CN1C(=O)C(Cc2n[nH]c3ccccc23)C(=O)N(c2ccccc2)c2ccccc21)c1ccccc1 (stereo not drawn) [CCK-A Agonist 37]	87.1 nM and 178 nM
COc1ccccc1N(C(=O)CN1C(=O)C(Cc2n[nH]c3ccccc23)C(=O)N(c2ccccc2)c2ccccc21)C(C)C (stereo not drawn) [CCK-A Agonist 41]	129 nM
